Measured values published in patent US20100130604A1, “USE OF ROSMARINIC ACID IN MANUFACTURE OF MEDICAMENTS FOR TREATING OR PREVENTING HEPATIC AND RENAL DISEASES” (SHANGDONG LUYE NATURAL DRUG RESEARCH AND DEVELOPMENT CO., …, priority 2006, published 2010).

Legend:
[1] = test system: renal interstitial fibrosis in rats; assay: Renal interstitial fibrosis in rats with unilateral urethral obstruction; assay type: in vivo, Sprague Dawley rats; conditions: for HYP: left kidney; for HYP / FN: day 10; for FN: serum
Procedure: 130 rats were randomly divided into 13 groups, namely, a sham operation group, a model group, benazapril p.o. Group at 10 mg/kg, RA i.v. groups at 2.5 mg/kg, 5 mg/kg, 25 mg/kg, 75 mg/kg, and 150 mg/kg of RA, and RA p.o. groups at 2.5 mg/kg, 5 mg/kg, 25 mg/kg, 150 mg/kg, and 300 mg/kg of RA. The animals were acclimated for a week before they were all anaesthetised with an i.p. dose of 10% chloral hydrate at 3.0mL/kg and placed on the operating table in right lateral position. The rats were shaved and the operating area was disinfected using iodine tincture and 75% ethanol. The left urethra was exposed and isolated after a left lateral incision was made on the abdominal area and skin, muscles and all other layers of the abdominal wall were incised sequentially. In the sham group, the left urethra was only isolated without being ligated or cut off. In all other animals, the left urethra was ligated with No. 4 suture and obstructed followed by closure of the abdominal wall layer by layer. The animals were anaesthetised again with 10% chloral hydrate 10 days later, blood was collected and serum was separated to determine FN levels. The left kidney was removed after thorough rinsing and then fixed in 4% paraformaldehyde buffer. HYP level was determined according to instructions provided with the kit.

[2] = test system: rats with diabetic nephropathy; assay: Diabetic nephropathy in rats (left nephrectomy + streptozocin); assay type: in vivo, Sprague Dawley rats; conditions: for creatinine: serum
Procedure: After 1 week-long acclimation period, animals were anaesthetised with 10% chloral hydrate (0.35 mL/100 g, i.p.) and nephrectomy was exercised to the left kidney. One week later, a single dose of 1% of streptozocin solution was i.v. injected to all animals at 60 mg/kg. After 72h, blood was collected from eyepit to test blood glucose level with the above-mentioned kit. The model was considered successful when blood glucose level >16.7 mmol/L. When the model is established, 130 rats were randomly divided into 13 groups, with 10 animals in each group, namely, a normal control group, a model group, benzanapril p.o. Group at 10 mg/kg, RA i.v. groups at 2.5 mg/kg, 5 mg/kg, 25 mg/kg, 75 mg/kg, and 150 mg/kg of RA, and RA p.o. groups at 5 mg/kg, 10 mg/kg, 50 mg/kg, 150 mg/kg, and 300 mg/kg of RA. The drugs were administered once every day. Blood was collected from eyepit at week 8 and week 16 to determine serum levels of creatinine and urea nitrogen. Urinary protein excretion within 24 hours was also studied. The animals were sacrificed 24 hours after the last dose and kidney removed for histopathological examination.

O=C(/C=C/c1ccc(O)c(O)c1)O[C@H](Cc1ccc(O)c(O)c1)C(=O)O [RA, R(+)2-{[3-(3,4-dihydroxylphenyl-(oxo-2-propenyl)oxy]3,4-dihydroxylphenylpropionic acid]}]
kidney lesions, light microscopic examination ([1]; RA treated animals vs model group): improvement of various degrees in lesions | FN and HYP levels vs model group ([1]; i.v. 2.5, 5, 25, 75, 150 mg/kg, p.o. 5, 25, 150, 300 mg/kg, p<0.05 or 0.01): can all significantly reduce FN and HYP levels | HYP ([1]; i.v. 2.5 mg/kg): 612 ± 102 µg/g | HYP ([1]; i.v. 5 mg/kg): 605 ± 118 µg/g | HYP ([1]; i.v. 25 mg/kg): 573 ± 98 µg/g | HYP ([1]; i.v. 75 mg/kg): 533 ± 94 µg/g | HYP ([1]; i.v. 150 mg/kg): 526 ± 121 µg/g | HYP ([1]; p.o. 2.5 mg/kg): 705 ± 162 µg/g | HYP ([1]; p.o. 5 mg/kg): 612 ± 118 µg/g | HYP ([1]; p.o. 25 mg/kg): 573 ± 98 µg/g | HYP ([1]; p.o. 150 mg/kg): 563 ± 94 µg/g | HYP ([1]; p.o. 300 mg/kg): 556 ± 121 µg/g | FN ([1]; i.v. 2.5 mg/kg): 22.7 ± 6.0 mg/L | FN ([1]; i.v. 5 mg/kg): 19.9 ± 6.3 mg/L | FN ([1]; i.v. 25 mg/kg): 17.7 ± 6.2 mg/L | FN ([1]; i.v. 75 mg/kg): 16.5 ± 4.3 mg/L | FN ([1]; i.v. 150 mg/kg): 16.4 ± 4.4 mg/L | FN ([1]; p.o. 2.5 mg/kg): 22.4 ± 6.5 mg/L | FN ([1]; p.o. 5 mg/kg): 19.8 ± 6.2 mg/L | FN ([1]; p.o. 25 mg/kg): 17.5 ± 6.3 mg/L | FN ([1]; p.o. 150 mg/kg): 17.2 ± 4.3 mg/L | FN ([1]; p.o. 300 mg/kg): 17.2 ± 4.4 mg/L | 24 h urinary protein excretion ([2]; 8 weeks, i.v. 2.5 mg/kg): 20.29 ± 2.21 mg/24 h | Blood glucose ([2]; 8 weeks, i.v. 2.5 mg/kg): 21.23 ± 5.66 mmol/L | Serum urea nitrogen ([2]; 8 weeks, i.v. 2.5 mg/kg): 18.01 ± 1.62 mg/dL | 24 h urinary protein excretion ([2]; 8 weeks, i.v. 5 mg/kg): 19.19 ± 2.15 mg/24 h | Blood glucose ([2]; 8 weeks, i.v. 5 mg/kg): 21.02 ± 6.14 mmol/L | Serum urea nitrogen ([2]; 8 weeks, i.v. 5 mg/kg): 17.91 ± 1.80 mg/dL | 24 h urinary protein excretion ([2]; 8 weeks, i.v. 25 mg/kg): 17.59 ± 2.12 mg/24 h | Blood glucose ([2]; 8 weeks, i.v. 25 mg/kg): 21.15 ± 5.74 mmol/L | Serum urea nitrogen ([2]; 8 weeks, i.v. 25 mg/kg): 15.42 ± 3.36 mg/dL | 24 h urinary protein excretion ([2]; 8 weeks, i.v. 75 mg/kg): 16.78 ± 2.52 mg/24 h | Blood glucose ([2]; 8 weeks, i.v. 75 mg/kg): 21.03 ± 4.74 mmol/L | Serum urea nitrogen ([2]; 8 weeks, i.v. 75 mg/kg): 14.76 ± 2.19 mg/dL | 24 h urinary protein excretion ([2]; 8 weeks, i.v. 150 mg/kg): 16.39 ± 2.25 mg/24 h | Blood glucose ([2]; 8 weeks, i.v. 150 mg/kg): 21.23 ± 5.54 mmol/L | Serum urea nitrogen ([2]; 8 weeks, i.v. 150 mg/kg): 13.87 ± 1.75 mg/dL | 24 h urinary protein excretion ([2]; 8 weeks, p.o. 5 mg/kg): 20.59 ± 2.34 mg/24 h | Blood glucose ([2]; 8 weeks, p.o. 5 mg/kg): 21.23 ± 6.36 mmol/L | Serum urea nitrogen ([2]; 8 weeks, p.o. 5 mg/kg): 19.37 ± 3.85 mg/dL | 24 h urinary protein excretion ([2]; 8 weeks, p.o. 10 mg/kg): 19.11 ± 2.19 mg/24 h | Blood glucose ([2]; 8 weeks, p.o. 10 mg/kg): 20.87 ± 6.55 mmol/L | Serum urea nitrogen ([2]; 8 weeks, p.o. 10 mg/kg): 17.57 ± 2.70 mg/dL | 24 h urinary protein excretion ([2]; 8 weeks, p.o. 50 mg/kg): 17.89 ± 2.64 mg/24 h | Blood glucose ([2]; 8 weeks, p.o. 50 mg/kg): 21.07 ± 5.46 mmol/L | Serum urea nitrogen ([2]; 8 weeks, p.o. 50 mg/kg): 15.96 ± 1.95 mg/dL | 24 h urinary protein excretion ([2]; 8 weeks, p.o. 150 mg/kg): 17.18 ± 2.56 mg/24 h | Blood glucose ([2]; 8 weeks, p.o. 150 mg/kg): 21.32 ± 6.44 mmol/L | Serum urea nitrogen ([2]; 8 weeks, p.o. 150 mg/kg): 14.76 ± 2.65 mg/dL | 24 h urinary protein excretion ([2]; 8 weeks, p.o. 300 mg/kg): 16.89 ± 2.75 mg/24 h | Blood glucose ([2]; 8 weeks, p.o. 300 mg/kg): 20.97 ± 5.54 mmol/L | Serum urea nitrogen ([2]; 8 weeks, p.o. 300 mg/kg): 14.42 ± 2.90 mg/dL | 24 h urinary protein excretion ([2]; 16 weeks, i.v. 2.5 mg/kg): 60.96 ± 6.85 mg/24 h | Blood glucose ([2]; 16 weeks, i.v. 2.5 mg/kg): 22.02 ± 5.34 mmol/L | Serum urea nitrogen ([2]; 16 weeks, i.v. 2.5 mg/kg): 33.91 ± 3.60 mg/dL | 24 h urinary protein excretion ([2]; 16 weeks, i.v. 5 mg/kg): 57.28 ± 8.46 mg/24 h | Blood glucose ([2]; 16 weeks, i.v. 5 mg/kg): 22.15 ± 4.24 mmol/L | Serum urea nitrogen ([2]; 16 weeks, i.v. 5 mg/kg): 30.42 ± 7.36 mg/dL | 24 h urinary protein excretion ([2]; 16 weeks, i.v. 25 mg/kg): 55.34 ± 7.67 mg/24 h | Blood glucose ([2]; 16 weeks, i.v. 25 mg/kg): 22.03 ± 4.59 mmol/L | Serum urea nitrogen ([2]; 16 weeks, i.v. 25 mg/kg): 26.76 ± 4.19 mg/dL | 24 h urinary protein excretion ([2]; 16 weeks, i.v. 75 mg/kg): 54.78 ± 7.96 mg/24 h | Blood glucose ([2]; 16 weeks, i.v. 75 mg/kg): 22.35 ± 7.28 mmol/L | Serum urea nitrogen ([2]; 16 weeks, i.v. 75 mg/kg): 23.07 ± 3.95 mg/dL | 24 h urinary protein excretion ([2]; 16 weeks, i.v. 150 mg/kg): 54.28 ± 7.46 mg/24 h | Blood glucose ([2]; 16 weeks, i.v. 150 mg/kg): 22.23 ± 6.24 mmol/L | Serum urea nitrogen ([2]; 16 weeks, i.v. 150 mg/kg): 22.57 ± 3.45 mg/dL | 24 h urinary protein excretion ([2]; 16 weeks, p.o. 5 mg/kg): 65.55 ± 8.71 mg/24 h | Blood glucose ([2]; 16 weeks, p.o. 5 mg/kg): 22.23 ± 5.66 mmol/L | Serum urea nitrogen ([2]; 16 weeks, p.o. 5 mg/kg): 39.37 ± 3.85 mg/dL | 24 h urinary protein excretion ([2]; 16 weeks, p.o. 10 mg/kg): 61.33 ± 6.65 mg/24 h | Blood glucose ([2]; 16 weeks, p.o. 10 mg/kg): 21.87 ± 5.55 mmol/L | Serum urea nitrogen ([2]; 16 weeks, p.o. 10 mg/kg): 38.37 ± 3.85 mg/dL | 24 h urinary protein excretion ([2]; 16 weeks, p.o. 50 mg/kg): 57.28 ± 8.46 mg/24 h | Blood glucose ([2]; 16 weeks, p.o. 50 mg/kg): 22.07 ± 4.46 mmol/L | Serum urea nitrogen ([2]; 16 weeks, p.o. 50 mg/kg): 34.57 ± 5.60 mg/dL | 24 h urinary protein excretion ([2]; 16 weeks, p.o. 150 mg/kg): 56.28 ± 8.76 mg/24 h | Blood glucose ([2]; 16 weeks, p.o. 150 mg/kg): 21.32 ± 6.34 mmol/L | Serum urea nitrogen ([2]; 16 weeks, p.o. 150 mg/kg): 28.96 ± 3.95 mg/dL | 24 h urinary protein excretion ([2]; 16 weeks, p.o. 300 mg/kg): 55.78 ± 9.46 mg/24 h | Blood glucose ([2]; 16 weeks, p.o. 300 mg/kg): 21.97 ± 5.34 mmol/L | Serum urea nitrogen ([2]; 16 weeks, p.o. 300 mg/kg): 27.76 ± 5.30 mg/dL | kidney pathological examination ([2]; RA treated groups vs model group): fewer lesions than the model group in a dose-dependent manner | creatinine ([2]; 8 weeks, i.v. 2.5 mg/kg): 0.91 ± 0.12 mg/dL | creatinine ([2]; 8 weeks, i.v. 5 mg/kg): 0.90 ± 0.09 mg/dL | creatinine ([2]; 8 weeks, i.v. 25 mg/kg): 0.75 ± 0.18 mg/dL | creatinine ([2]; 8 weeks, i.v. 75 mg/kg): 0.72 ± 0.15 mg/dL | creatinine ([2]; 8 weeks, i.v. 150 mg/kg): 0.69 ± 0.11 mg/dL | creatinine ([2]; 8 weeks, p.o. 5 mg/kg): 0.96 ± 0.09 mg/dL | creatinine ([2]; 8 weeks, p.o. 10 mg/kg): 0.88 ± 0.15 mg/dL | creatinine ([2]; 8 weeks, p.o. 50 mg/kg): 0.77 ± 0.13 mg/dL | creatinine ([2]; 8 weeks, p.o. 150 mg/kg): 0.75 ± 0.12 mg/dL | creatinine ([2]; 8 weeks, p.o. 300 mg/kg): 1.40 ± 0.28 mg/dL | creatinine ([2]; 16 weeks, i.v. 2.5 mg/kg): 1.60 ± 0.18 mg/dL | creatinine ([2]; 16 weeks, i.v. 5 mg/kg): 1.52 ± 0.37 mg/dL | creatinine ([2]; 16 weeks, i.v. 25 mg/kg): 1.32 ± 0.28 mg/dL | creatinine ([2]; 16 weeks, i.v. 75 mg/kg): 1.26 ± 0.28 mg/dL | creatinine ([2]; 16 weeks, i.v. 150 mg/kg): 1.20 ± 0.22 mg/dL | creatinine ([2]; 16 weeks, p.o. 5 mg/kg): 1.97 ± 0.19 mg/dL | creatinine ([2]; 16 weeks, p.o. 10 mg/kg): 1.92 ± 0.19 mg/dL | creatinine ([2]; 16 weeks, p.o. 50 mg/kg): 1.77 ± 0.28 mg/dL | creatinine ([2]; 16 weeks, p.o. 150 mg/kg): 1.53 ± 0.28 mg/dL | creatinine ([2]; 16 weeks, p.o. 300 mg/kg): 1.50 ± 0.26 mg/dL | serum creatinine, urea nitrogen, 24-hour urinary protein excretion ([2]; week 8 and week 16, i.v. 2.5, 5, 25, 75, 150 mg/kg, p.o. 5, 10, 50, 150, 300 mg/kg): can all significantly reduce serum creatinine and urea nitrogen levels as well as 24-hour urinary protein excretion
